The text below walks through data of publication PMC3125149, “SCYX-7158, an Orally-Active Benzoxaborole for the Treatment of Stage 2 Human African Trypanosomiasis” (PLoS Neglected Tropical Diseases, 2011).

One data set has as its system T. b. brucei 427. The data set is described as follows: Time-kill assay (ATP content, CellTiter Glo). It counts as cell-based. Here is the method:
The assessment of oxaborole-mediated killing of T. b. brucei in vitro was conducted using the CellTiter Glo kit (Promega, Inc., Madison, WI) to measure trypanosome ATP content as a real-time indicator of viability. Test compounds were serially diluted from 5 to 0.01 µg/mL into white wall-clear bottom 96-well plates (Corning Inc., Lowell, MA) containing HMI-9 media. 1×10^4 trypanosomes were added to each well. At specified intervals, the CellTiter Glo reagent was added to lyse the parasites and the plates were incubated for 10 min in the dark. Luminescence was quantified using an EnVision plate reader. All determinations were done in duplicate. Time-kill parameters were determined from plots of parasite viability versus incubation time for each concentration tested.
(ATP-based viability assays read luminescence as a measure of living cells.)

A further data set in a line: Aqueous solubility. To be noted: pH 7.4 PBS. The data set is classed as physicochemical. From the text: Table 3 In vitro physicochemical and ADME properties of SCYX-7158. | column: Value
Data set [1] addresses T1, P-glycoprotein (human MDR1) (Homo sapiens, UniProt P08183).
T1 construct: expressed in transfected cells; host or cells: MDCKII (canine kidney) cells, provided by P. Borst
As to the kind of experiment: MDCKII-hMDR1 monolayer permeability and P-gp efflux. It counts as in vitro ADME. To be noted: dog. Here is the method:
(§1) T. b. brucei was cultured in complete HMI-9 medium,[20] which contains 10% fetal bovine serum (FBS) (Invitrogen, Carlsbad, CA), 10% Serum Plus medium (SAFC Biosciences, Lenexa, KS), and 100 units/mL penicillin and 0.1 mg/mL streptomycin. The trypanosomes were propagated in T-25 vented cap flasks (Corning Inc., Lowell, MA) at 37°C and 5% CO2 with humidity. To ensure log growth phase, trypanosomes were sub-cultured at appropriate dilutions (typically 1∶100) every 2–3 days in fresh HMI-9 medium. T. b. rhodesiense parasites were grown in MEM medium with Earle's salts supplemented with 15% horse serum. For T. b. gambiense, the MEM medium was supplemented with 5% heat-inactivated fetal calf serum (FCS) and 15% human serum.[21] L929 mouse fibroblast cells (ATCC CCL1, American Type Culture Collection, Rockville, MD) were used to determine parasite versus mammalian cell selectivity. Cells were cultured in Dulbecco's Modified Eagle Medium (DMEM), supplemented with 10% FBS, L-glutamine and 100 units/mL penicillin and 0.1 mg/mL streptomycin. MDCKII-hMDR1 cells were generously provided by P. Borst at the Netherlands Kancer Institute. Cells were cultured in DMEM with Glutamax, 10% (v/v) FBS, and 100 units/mL penicillin and 0.1 mg/mL streptomycin. Cell monolayers were fed with cell culture media 24 h after seeding and used for permeability studies 3 days later.
(§2) The propensity of the compound to cross the blood-brain barrier was examined using an in vitro MDCKII-hMDR1 transwell assay.[24] MDCKII-hMDR1 cells were seeded at density of 3×10^5 cells per well onto microporous polycarbonate membranes in 12 well Costar Transwell plates (Corning Inc., Lowell, MA). The cells were used for permeability studies 3 days later. Trans-epithelial resistance (TEER) was measured for each insert to ensure the integrity of the monolayer (acceptable TEER >50 Ωcm^2).
(§3) The permeability and propensity for P-gp-mediated efflux was evaluated by adding each compound at a concentration of 3 µM, in the presence or absence of 2 µM GF120918, to the apical compartment. Competency of the P-gp efflux transporter was confirmed by assay of propranolol (non-substrate) and amprenavir (substrate). Cell monolayers were incubated in triplicate with shaking (160 rpm) at 37°C in a 5% CO2-enriched humidified atmosphere for 1 h. Samples were removed from the apical and basolateral compartments after incubation and assayed for test compound concentrations by LC-MS/MS. Values for mass balance, PappA→B, PappA→B+GF918, and absorption quotient (AQ) were calculated for each compound.[25], [26], [27] Acceptance criterion for mass balance was 70–120%.

For data set [2], the target named is T2, MDCKII-hMDR1 cells (P-glycoprotein) (Homo sapiens, UniProt P08183).
T2 construct: expressed in transfected cells; host or cells: MDCKII (canine kidney) cells, provided by P. Borst
The data set is described as above. It counts as in vitro ADME. How it is done: as §1, §2, §3

The nature of data set [3]: Metabolism in primary hepatocytes. The data set is classed as in vitro ADME, rat or dog. To be noted: over 12 h.
Data set [4] relates to L929 mouse fibroblast cells. As to the kind of experiment: Mammalian cell cytotoxicity. The data set is classed as cell-based. How it is done: as §1, with “later. […]” for “later.”
For a further data set, the system named is T. b. brucei. As to the kind of experiment: Effect of serum on trypanocidal activity. The data set is classed as cell-based. To be noted: 25% mouse serum or 50% bovine serum. How it is done: Compounds to be tested were serially diluted in DMSO and added to 96-well plates to give final concentrations ranging from 5 to 0.01 µg/mL. T. b. brucei parasites in the log phase of growth were diluted in HMI-9 media and added to each well for a final concentration of 1×10^4 parasites per well. For the sensitivity assays using T. b. rhodesiense and T. b. gambiense, pararasites were cultured in MEM supplemented with Baltz components (8), diluted in the aforementioned culture media, and added to each well at a density of 1×10^3 cells/well. The final concentration of DMSO was 0.5% and the total volume was 100 µL/well. After a 72 h incubation, resazurin (Sigma-Aldrich, St. Louis, MO) was added to each well [20 µL of 25 mg/100 mL stock in phosphate buffered saline (PBS)] and incubated for an additional 4–6 h.[22] To assess cell viability, fluorescence was quantified using an EnVision Multilabel Plate Reader (Perkin Elmer, Waltham, MA) at an excitation wavelength of 530 nm and emission of 590 nm. Triplicate data points were averaged to generate sigmoidal dose-response curves and determine IC50 values using XLfit curve fitting software from IDBS (Guilford, UK). The IC50 is defined as the amount of compound required to decrease parasite or cell viability by 50% compared to those grown in the absence of the test compound. […]

≈ marks a conversion by molar mass, not a printed value. Like-named read-outs stand apart in the source and are kept apart here. Where only a bound is given, the exact number is not on record here.

T1 sequence (P08183 whole entry): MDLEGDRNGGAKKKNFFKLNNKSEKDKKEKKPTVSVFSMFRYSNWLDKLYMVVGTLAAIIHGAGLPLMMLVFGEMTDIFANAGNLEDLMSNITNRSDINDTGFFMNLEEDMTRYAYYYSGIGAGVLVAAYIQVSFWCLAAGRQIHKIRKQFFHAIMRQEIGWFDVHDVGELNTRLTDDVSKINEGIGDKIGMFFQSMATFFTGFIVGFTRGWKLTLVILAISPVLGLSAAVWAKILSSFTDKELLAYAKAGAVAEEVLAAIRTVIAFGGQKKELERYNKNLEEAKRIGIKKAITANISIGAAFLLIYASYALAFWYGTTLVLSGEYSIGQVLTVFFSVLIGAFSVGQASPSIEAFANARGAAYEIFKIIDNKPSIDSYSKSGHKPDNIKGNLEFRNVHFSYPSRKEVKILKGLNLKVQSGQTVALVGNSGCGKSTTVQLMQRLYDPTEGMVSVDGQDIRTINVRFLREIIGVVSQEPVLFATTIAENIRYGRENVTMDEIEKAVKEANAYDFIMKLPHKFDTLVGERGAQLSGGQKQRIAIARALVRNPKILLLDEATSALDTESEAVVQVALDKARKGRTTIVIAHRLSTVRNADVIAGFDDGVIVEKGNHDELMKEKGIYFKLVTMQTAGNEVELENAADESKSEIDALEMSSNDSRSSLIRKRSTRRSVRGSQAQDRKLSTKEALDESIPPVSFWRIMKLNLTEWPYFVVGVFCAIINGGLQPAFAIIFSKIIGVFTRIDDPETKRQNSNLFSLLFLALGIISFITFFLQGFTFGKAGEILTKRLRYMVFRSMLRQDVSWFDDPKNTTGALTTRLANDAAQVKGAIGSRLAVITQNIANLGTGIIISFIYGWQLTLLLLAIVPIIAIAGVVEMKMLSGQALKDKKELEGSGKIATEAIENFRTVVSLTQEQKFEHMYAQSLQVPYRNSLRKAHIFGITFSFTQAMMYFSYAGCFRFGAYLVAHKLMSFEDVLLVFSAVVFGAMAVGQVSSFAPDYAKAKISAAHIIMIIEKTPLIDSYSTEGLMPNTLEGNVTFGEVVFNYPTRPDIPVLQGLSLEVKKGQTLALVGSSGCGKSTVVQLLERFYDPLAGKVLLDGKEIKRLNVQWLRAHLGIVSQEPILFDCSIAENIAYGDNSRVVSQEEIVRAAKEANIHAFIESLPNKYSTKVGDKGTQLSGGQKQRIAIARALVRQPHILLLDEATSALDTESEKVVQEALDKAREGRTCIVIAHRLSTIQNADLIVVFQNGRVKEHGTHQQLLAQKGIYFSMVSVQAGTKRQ
T2 sequence (P08183 whole entry): as above

`CC1(C)OB(O)c2cc(NC(=O)c3ccc(F)cc3C(F)(F)F)ccc21` [SCYX-7158]: in the data set on T. b. brucei 427 (within 8 h of exposure at 1.25 µg/mL (about 2 times the MIC)), the reduction in viability entry is reported as “greater than 50%”. The parasites killed with T. b. brucei 427 (within 24 h of exposure, 1.25 µg/mL) is given as more than 99%. This compound also displayed a solubility in “Aqueous solubility” of 25 µM (≈ 9.18 µg/mL). The apparent permeability from apical to basolateral (Papp A→B) at 1 h, 3 µM in data set [1] (MDCK-MDR1, with GF120918 2 µM, in presence of P-gp inhibitor GF120918 (2 µM), read-out: Papp A→B + GF120918) was 85.3 ×10⁻⁶ cm/s; in data set [1] (MDCK-MDR1, apical to basolateral, 3 µM (1.1 µg/mL), 1 h, read-out: Papp A→B), 77.6 ×10⁻⁶ cm/s. In addition, the “AQ (absorption quotient)” value in data set [2] (calculated from Papp with and without GF120918) is on record as 0.09. Moreover, the P-gp substrate status result in data set [2] (from AQ) is listed as “not a P-gp substrate”. Further, the “fraction of SCYX-7158 metabolized” value in data set [3] is reported as “less than 5%”. The concentration for half-maximal inhibition (IC50) in data set [4] (Mouse L929 fibroblast, n = 4) is more than 50 µg/mL. Also, the “inhibition of cell proliferation” value in data set [4] (drug concentrations up to 50 µg/mL) is “no significant inhibition”. Besides, the “attenuation of in vitro IC50” value with T. b. brucei was 3–4 fold.

As a reminder, the solubility is how much of the substance goes into solution per volume. For orientation: Papp A→B means how fast a substance crosses the layer from the apical side. For orientation: IC50 means the concentration that inhibits the measured activity by half.
